US11077090B2, “Compounds and compositions and uses thereof” (Sunovion Pharmaceuticals Inc., priority 2016, dated 2021)
Where two headings read alike, the source gives them in different places.

System: compound-treated mice
Assay: Neuropharmacological assay (SmartCube): behavioral activity signature and minimal effective dose
Format: in vivo
Conditions: for minimal effective dose: Mus musculus, ip, MED = dose having 50% or more total activity; for AD: ADHD (probability of activity signature) / AG: analgesic (probability of activity signature) / AX: anxiolytic (probability of activity signature) / CE: cognitive enhancer (probability of activity signature) / DP: anti-depressant (probability of activity signature) / MS: mood stabilizer (probability of activity signature) / PS: anti-psychotic (probability of activity signature) / SD: sedative hypnotic (probability of activity signature) / UN: uncharacterized CNS activity (probability of activity signature): i.p. 15 min before test, most efficacious dose(s)
In short: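 Video-recorded behavior is compared algorithmically against a reference-compound database, yielding class probabilities (best dose reported). Compounds given i.p. in NMP/PEG/propylene glycol 15 min pre-test at 3 doses; potency as MED, the dose (mpk, range usually 0.3–30) reaching ≥50% total activity.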

[1] = read-out: Potency: minimal effective dose (MED)
[2] = read-out: Potency: minimal effective dose (MED), binned

Structure (SMILES)	minimal effective dose [1] [mg/kg]	AD: ADHD (probability of activity signature)	AG: analgesic (probability of activity signature)	AX: anxiolytic (probability of activity signature)	CE: cognitive enhancer (probability of activity signature)	DP: anti-depressant (probability of activity signature)	MS: mood stabilizer (probability of activity signature)	PS: anti-psychotic (probability of activity signature)	SD: sedative hypnotic (probability of activity signature)	UN: uncharacterized CNS activity (probability of activity signature)	minimal effective dose [2] [mg/kg]
Cc1cc(Cl)c2c(c1)C(N)COC2.Cl (stereo not drawn) [Example 49, 8-Chloro-6-methylisochroman-4-amine hydrochloride]	3 to 10	+ (LOQ ≤ + <5%)	++ (5% ≤ ++ <25%)	++ (5% ≤ ++ <25%)	++ (5% ≤ ++ <25%)	++ (5% ≤ ++ <25%)	+ (LOQ ≤ + <5%)	++ (5% ≤ ++ <25%)	++ (5% ≤ ++ <25%)	++++ (50% ≤ ++++)	–
Cc1ccc2c(c1)[C@@H](N)[C@@H](C)OC2 (single isomer, unassigned) [Example 158]	–	+ (LOQ ≤ + <5%)	++ (5% ≤ ++ <25%)	++ (5% ≤ ++ <25%)	++ (5% ≤ ++ <25%)	++ (5% ≤ ++ <25%)	+ (LOQ ≤ + <5%)	+++ (25% ≤ +++ <50%)	++ (5% ≤ ++ <25%)	++ (5% ≤ ++ <25%)	3 to 10
CCc1cccc2c1COCC2N.Cl (stereo not drawn) [Example 17, 8-Ethylisochroman-4-amine hydrochloride]	10 to 30	+ (LOQ ≤ + <5%)	++ (5% ≤ ++ <25%)	+++ (25% ≤ +++ <50%)	++ (5% ≤ ++ <25%)	++ (5% ≤ ++ <25%)	+ (LOQ ≤ + <5%)	++ (5% ≤ ++ <25%)	+ (LOQ ≤ + <5%)	+++ (25% ≤ +++ <50%)	–
CC(C)C[C@H]1OCc2ccccc2[C@@H]1N [Example 224]	–	+ (LOQ ≤ + <5%)	++ (5% ≤ ++ <25%)	++ (5% ≤ ++ <25%)	+++ (25% ≤ +++ <50%)	+ (LOQ ≤ + <5%)	+ (LOQ ≤ + <5%)	+ (LOQ ≤ + <5%)	++ (5% ≤ ++ <25%)	++ (5% ≤ ++ <25%)	10 to 30
C[C@@H]1OCc2ccc(Cl)cc2[C@@H]1N.Cl [Example 194]	–	+ (LOQ ≤ + <5%)	++ (5% ≤ ++ <25%)	++ (5% ≤ ++ <25%)	++ (5% ≤ ++ <25%)	++ (5% ≤ ++ <25%)	+ (LOQ ≤ + <5%)	++ (5% ≤ ++ <25%)	+ (LOQ ≤ + <5%)	++++ (50% ≤ ++++)	3 to 10
Cc1cccc2c1CO[C@H](C)[C@H]2N.Cl [Example 98]	3 to 10	+ (LOQ ≤ + <5%)	++ (5% ≤ ++ <25%)	++ (5% ≤ ++ <25%)	++ (5% ≤ ++ <25%)	++ (5% ≤ ++ <25%)	+ (LOQ ≤ + <5%)	++ (5% ≤ ++ <25%)	++ (5% ≤ ++ <25%)	++++ (50% ≤ ++++)	–
C[C@H]1OCc2c(Cl)cccc2[C@@H]1N.Cl [Example 87]	3 to 10	+ (LOQ ≤ + <5%)	++ (5% ≤ ++ <25%)	++ (5% ≤ ++ <25%)	++ (5% ≤ ++ <25%)	++ (5% ≤ ++ <25%)	+ (LOQ ≤ + <5%)	++ (5% ≤ ++ <25%)	++ (5% ≤ ++ <25%)	+++ (25% ≤ +++ <50%)	–
Cc1ccc2c(c1)CO[C@@H](C)[C@@H]2N [Example 253]	–	+ (LOQ ≤ + <5%)	+ (LOQ ≤ + <5%)	+ (LOQ ≤ + <5%)	+ (LOQ ≤ + <5%)	++ (5% ≤ ++ <25%)	++ (5% ≤ ++ <25%)	++ (5% ≤ ++ <25%)	++ (5% ≤ ++ <25%)	++ (5% ≤ ++ <25%)	3 to 10
Cc1cccc2c1C(N)COC2.Cl (stereo not drawn) [Example 21, 5-Methylisochroman-4-amine hydrochloride]	3 to 10	+ (LOQ ≤ + <5%)	++ (5% ≤ ++ <25%)	++ (5% ≤ ++ <25%)	++ (5% ≤ ++ <25%)	++ (5% ≤ ++ <25%)	+ (LOQ ≤ + <5%)	++ (5% ≤ ++ <25%)	++ (5% ≤ ++ <25%)	+++ (25% ≤ +++ <50%)	–
C[C@H]1OC[C@@H](N)c2cc(F)ccc21.Cl [Example 205]	–	+ (LOQ ≤ + <5%)	+ (LOQ ≤ + <5%)	+++ (25% ≤ +++ <50%)	++ (5% ≤ ++ <25%)	++ (5% ≤ ++ <25%)	+ (LOQ ≤ + <5%)	++ (5% ≤ ++ <25%)	++ (5% ≤ ++ <25%)	+++ (25% ≤ +++ <50%)	3 to 10
Cc1cccc2c1COC[C@H]2N (single isomer, unassigned) [Example 129]	3 to 10	+ (LOQ ≤ + <5%)	++ (5% ≤ ++ <25%)	+++ (25% ≤ +++ <50%)	++ (5% ≤ ++ <25%)	++ (5% ≤ ++ <25%)	+ (LOQ ≤ + <5%)	++ (5% ≤ ++ <25%)	++ (5% ≤ ++ <25%)	+++ (25% ≤ +++ <50%)	–
C[C@@H]1OC[C@@H](N)c2ccccc21.Cl (relative stereo) [Example 105, trans-1-Methylisochroman-4-amine hydrochloride]	10 to 30	+ (LOQ ≤ + <5%)	++ (5% ≤ ++ <25%)	++ (5% ≤ ++ <25%)	++ (5% ≤ ++ <25%)	++ (5% ≤ ++ <25%)	++ (5% ≤ ++ <25%)	++ (5% ≤ ++ <25%)	+ (LOQ ≤ + <5%)	+++ (25% ≤ +++ <50%)	–
C[C@H]1OCc2ccc(F)cc2[C@H]1N [Example 186]	–	+ (LOQ ≤ + <5%)	++ (5% ≤ ++ <25%)	++ (5% ≤ ++ <25%)	++ (5% ≤ ++ <25%)	++ (5% ≤ ++ <25%)	+ (LOQ ≤ + <5%)	++ (5% ≤ ++ <25%)	+ (LOQ ≤ + <5%)	+++ (25% ≤ +++ <50%)	3 to 10
COc1ccc2c(c1)[C@@H](N)[C@@H](C)OC2 (single isomer, unassigned) [Example 174]	–	+ (LOQ ≤ + <5%)	++ (5% ≤ ++ <25%)	++ (5% ≤ ++ <25%)	++ (5% ≤ ++ <25%)	++ (5% ≤ ++ <25%)	+ (LOQ ≤ + <5%)	++ (5% ≤ ++ <25%)	+ (LOQ ≤ + <5%)	++++ (50% ≤ ++++)	3 to 10
CCCN[C@@H]1c2ccccc2CO[C@H]1C.Cl [Example 264]	–	++ (5% ≤ ++ <25%)	+ (LOQ ≤ + <5%)	++ (5% ≤ ++ <25%)	+ (LOQ ≤ + <5%)	++ (5% ≤ ++ <25%)	++ (5% ≤ ++ <25%)	+++ (25% ≤ +++ <50%)	++ (5% ≤ ++ <25%)	+ (LOQ ≤ + <5%)	3 to 10
